# Test results published in PubChem BioAssay AID1645865 (Buhrlage Lab, Dana-Farber Cancer Institute and Novartis …, 2021).
# Active and inactive are the calls of the source.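 The calls were made as follows: active = maximal inhibition of the USP30 enzyme reaching 30% or more across the dose series; inactive = the rest.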
# Target: Ubiquitin carboxyl-terminal hydrolase 30 (Homo sapiens) (UniProt Q70CQ3)
# Test: inhibitors of ubiquitin-specific protease 30 deubiquitylating enzyme, concentration dependence, in vitro biochemical, validation of primary hits (AID 1645865)
# Details: purified USP30, Ub-rhodamine cleavage, fluorescence, 2 h
# Ubiquitin carboxyl-terminal hydrolase 30 (Homo sapiens), sequence (Q70CQ3 whole entry, looked up): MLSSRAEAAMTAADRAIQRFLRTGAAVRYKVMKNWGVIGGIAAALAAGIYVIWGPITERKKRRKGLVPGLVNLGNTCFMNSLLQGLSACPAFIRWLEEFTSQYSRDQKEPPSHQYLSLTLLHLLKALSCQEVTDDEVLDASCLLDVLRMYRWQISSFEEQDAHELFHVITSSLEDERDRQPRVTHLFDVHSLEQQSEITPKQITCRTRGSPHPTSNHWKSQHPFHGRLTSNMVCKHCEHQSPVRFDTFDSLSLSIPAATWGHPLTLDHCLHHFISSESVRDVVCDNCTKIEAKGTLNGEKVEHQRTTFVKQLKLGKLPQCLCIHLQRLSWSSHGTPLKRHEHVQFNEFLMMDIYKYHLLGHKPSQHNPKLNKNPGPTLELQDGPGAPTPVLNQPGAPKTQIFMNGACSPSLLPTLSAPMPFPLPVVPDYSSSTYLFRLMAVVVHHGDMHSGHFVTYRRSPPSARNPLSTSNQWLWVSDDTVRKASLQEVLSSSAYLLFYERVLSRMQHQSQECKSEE
row,IC50,Structure (SMILES)
1,35.5 µM,O=C(Nc1ccncc1)c1ncoc1-c1cccc(Cl)c1
2,> 50 µM (inactive),CC(C(=O)NCc1ccc2c(c1)OCO2)N1CCN(c2ccc(O)cc2)CC1 (stereo not drawn)
3,> 50 µM (inactive),CC(C)(C)C(=O)C1C2C(=O)N(Cc3ccccc3)C(=O)C2C2c3ccccc3C=CN12 (stereo not drawn)
4,14.2 µM,Cc1cc(=O)n(CC(=O)Nc2ccccc2F)c(Nc2ccc(F)cc2)n1
5,> 50 µM (inactive),Cn1nc(-c2nc(-c3ccccc3)no2)c2c1CCN(C(=O)C1CC1)C2
6,> 50 µM (inactive),O=C(CSc1ncnc2c1sc1cccc(F)c12)N1CCCCCC1
7,> 50 µM (inactive),CCn1cc(NC(=O)CN2CCC3(CC=CCOC3)CC2)c(C)n1
8,25.6 µM,Cc1cccc(NC(=O)CSc2nnc(-c3n[nH]c4c3CCC4)n2N)c1
9,13.2 µM,COc1ccc(Cl)c(NC(=O)C2CC(=O)Nc3cc(-c4ccccc4)nn32)c1 (stereo not drawn)
10,8.68 µM,Cc1cc(C(F)(F)F)n(-c2ccc(NC(=O)Nc3cccc(C(F)(F)F)c3)cc2)n1
11,> 50 µM (inactive),Cc1ccc(C(=O)Nc2ccc3c(c2)C(=O)N(C)c2ccccc2O3)cc1C
12,10.2 µM,COc1ccc(CN(C(=O)c2cc(-c3ccc(C)cc3)on2)C2CCS(=O)(=O)C2)cc1 (stereo not drawn)
13,> 50 µM (inactive),CCC1OC(O)(C(C)C(O)C(C)C2OC(=O)/C(C)=C/C(C)=CC(C)C(O)C(C)C/C(C)=C/C=C/C2OC)CC(OC(=O)/C=C/C(=O)NC2=C(O)CCC2=O)C1C (stereo not drawn)
14,> 50 µM (inactive),COc1cccc(/C=C/C(=O)Nc2ccc(N3CCOCC3)cc2)c1OC
15,19.4 µM,Cc1nn(Cc2ccccc2)c2sc(C(=O)Nc3nc4ccccc4[nH]3)cc12
16,24.7 µM,CN1C(=O)COc2cc(-c3noc(C(=O)NC4CCCCCC4)n3)ccc21
17,2.05 µM,CCOc1ccc2[nH]c3c(=O)n(CCc4ccc(OC)cc4)cnc3c2c1
18,> 50 µM (inactive),CC1OC1C(=O)[C@]1(O)[C@H](C)[C@@H](O)[C@@]23O[C@@]2([C@H](O)c2c(O)cccc2C3=O)[C@H]1O (stereo partly drawn)
19,> 50 µM (inactive),CC(=O)NCc1nc(-c2ccc3c(c2)nc(C)c(=O)n3C2CCCC2)no1
20,0.401 µM,COc1ccc(Nc2nc3c(S(=O)(=O)c4ccc(C)cc4)nnn3c3ccsc23)c(OC)c1
21,1.9 µM,COc1ccc(-c2cc3nc([C@H](C)NC(=O)Cc4ccccc4C)nn3cn2)cc1
22,> 50 µM (inactive),COc1ccc(CCn2cnc3c4ccccc4n(C)c3c2=O)cc1OC
23,> 50 µM (inactive),CCN1CCCC1CN(Cc1cc2cc(OC)ccc2[nH]c1=O)C(=O)NCc1ccccc1 (stereo not drawn)
24,4.68 µM,CC(=O)C1=C(O)[C@]2(O)C(=O)c3c(c(C)c4ccc(C)c(O)c4c3O)C[C@H]2[C@@H](N)C1=O
25,20.9 µM,COc1ccc(OC)c2c(C)cc(N3CCN(S(=O)(=O)c4ccc5c(c4)CCCN5S(C)(=O)=O)CC3)nc12

row,IC50,Structure (SMILES)
1,> 50 µM (inactive),COc1ccccc1-c1ccc(SCC(=O)Nc2ccc3c(c2)OCCO3)nn1
2,> 50 µM (inactive),O=c1ccc(-c2noc(-c3ccc4cc[nH]c4c3)n2)c[nH]1
3,> 50 µM (inactive),Cc1nc2cc(NC(=O)C3CN(C(=O)c4cnccn4)C3)ccc2s1
4,11 µM,CC(=O)c1sc(NC(=O)c2ccccc2-c2ccc(C(F)(F)F)cc2)nc1C
5,3.76 µM,O=S(=O)(c1cccc(F)c1)N1CCc2nc3ccccc3n2CC1
6,34.3 µM,Cc1ccc(C(=O)Nc2ccc3nccnc3c2)cc1
7,39.3 µM,COc1cccc2sc(N3CCN(c4nc5ccccc5s4)CC3)nc12
8,> 50 µM (inactive),O=C(O)COc1ccccc1/C=C1\CCc2c1nc1ccccc1c2C(=O)O
9,> 50 µM (inactive),CC(C)Cc1nc2sc3c(NCCN4CCOCC4)ncnc3c2c2c1CCC2
10,4.38 µM,O=C(CC1C(=O)Nc2nc(-c3ccccc3)nn21)Nc1cccc2ccccc12 (stereo not drawn)
11,> 50 µM (inactive),O=S1(=O)CCN(Cc2ccccc2)c2c(F)nc(N3CCCCC3)c(F)c21
12,3.2 µM,N#Cc1ccc(NC(=O)Nc2cccn(Cc3ccccc3F)c2=O)cc1
13,26.8 µM,Cc1nnc(C(=O)Nc2ccc(C(=O)NCc3ccccc3C)cc2)s1
14,> 50 µM (inactive),CC(Sc1n[nH]c2nc3ccccc3n12)C(=O)Nc1ccc2c(c1)OCCO2 (stereo not drawn)
15,> 50 µM (inactive),O=C(NCc1ccc(F)cc1)N1CCC2(C1)Nc1cccnc1NC2=NCc1ccccc1 (stereo not drawn)
16,23 µM,COc1cccc(NC(=O)Cc2sc(Nc3cc(C)cc(C)c3)nc2O)c1
17,> 50 µM (inactive),O=C(NC1CCCCC1)c1cc2c(cn1)[nH]c1ccccc12
18,36.3 µM,CSc1nccc(-c2ccc(F)cc2)c1C#N
19,> 50 µM (inactive),O=C(COC(=O)c1cc(Cl)c2c(c1)OCO2)Nc1ccc2[nH]c(=O)[nH]c2c1
20,42.2 µM,O=C1COc2ccc(NC(=O)c3cnn(Cc4ccccc4)c3)cc2N1
21,36.4 µM,Cc1ccc(NC(=O)CCC(=O)Nc2ccc3nc(N4CCCCC4)cc(C)c3c2)c(Br)c1
22,31.8 µM,CCn1c(=N)n(CCOc2ccc(F)cc2)c2ccccc21
23,20.7 µM,COc1ccc(NC(=O)Cn2cc(C(=O)c3ccc(F)cc3)c(=O)c3cc(C)ccc32)cc1
24,43.2 µM,Cc1ccc(NC(=O)c2ccc(Nc3nnc(C)c4ccccc34)cc2)cc1
25,> 50 µM (inactive),Cc1cc(C)c2cc(CN(CCc3ccccc3)C(=O)Nc3ccccc3)c(=O)[nH]c2c1

row,IC50,Structure (SMILES)
1,32.2 µM,COc1ccc(-c2cc(C(C)=O)c(C)n2CCC(=O)Nc2ccc(OC)cc2OC)cc1
2,> 50 µM (inactive),CSc1ccc(CNCc2c(C(=O)O)n(Cc3ccccc3)c3cc(C)ccc23)cc1
3,> 50 µM (inactive),Nc1nc(-c2ccc[nH]2)cs1
4,> 50 µM (inactive),O=c1ccc(-c2noc(Cc3c(F)cccc3Cl)n2)c[nH]1
5,> 50 µM (inactive),O=C(CNS(=O)(=O)c1ccc(F)cc1)N1CCCC(c2nnc3ccccn23)C1 (stereo not drawn)
6,> 50 µM (inactive),Cc1nc(-c2ccc3c(c2)nnn3CCN2CCOCC2)no1
7,0.0686 µM,COc1ccc2cc3c(nc2c1)OC(=O)N(CCc1cccc(F)c1)C3
8,32.3 µM,CC1=C(c2ccc(F)cc2)S(=O)(=O)N=C1Nc1ccc(Cl)cc1
9,> 50 µM (inactive),Cc1cc(C(F)(F)F)n2nc(C3CCN(C(=O)c4cnn(C)c4C)C3)cc2n1 (stereo not drawn)
10,> 50 µM (inactive),COc1ccc(CCNC(=O)c2cc(C3CC3)nc3c2cnn3C(C)C)cc1
11,> 50 µM (inactive),CN1CCN(c2ccc3nc(-c4ccccc4)c(-c4ccccc4)nc3c2)CC1
12,28.6 µM,CCC(C)(C)C1CCC2(CC1)N=C(N)Nc1nc3ccccc3n12 (stereo not drawn)
13,> 50 µM (inactive),Cc1ccccc1NC(=O)c1ccc(N2CCCCC2)nn1
14,> 50 µM (inactive),CC(C(=O)Nc1ccccc1)n1cnc2nc(N3CCCCC3)ncc2c1=O (stereo not drawn)
15,1.59 µM,COc1ccc(OC)c(NC(=O)c2cc(Cl)ccc2OC)c1
16,> 50 µM (inactive),CC(=O)c1ccc(NC(=O)C2CCN(c3cncnc3N3CCCC3)CC2)cc1
17,> 50 µM (inactive),COC1C(O)=C2C(=O)O/C(C)=C/C=C/C=C/C=C/CC(c3ccccc3)NC(=O)/C=C/C=C/C=C\C=C\C2(C)C1O (stereo not drawn)
18,25.8 µM,Cn1c(=O)c2cc(C(=O)Nc3ccc(F)cc3)cnc2n(C)c1=O
19,2.31 µM,CCCCc1ccc(-c2cc(C(=O)NCCN3CCOCC3)c3cc(Br)ccc3n2)cc1
20,8.81 µM,Cc1ccc2c(c1)c(=O)c(C(=O)c1ccccc1)cn2CC(=O)Nc1ccccc1
21,> 50 µM (inactive),Cc1nn(-c2ccc(Cl)cc2)c2[nH]c(=O)c(CNCC3CCCO3)cc12 (stereo not drawn)
22,21.2 µM,CC(=O)Nc1ccc(-n2cnc(C(=O)NCc3ccc(C)cc3)c2)nc1
23,> 50 µM (inactive),Cc1ccc(C(=O)Nc2ccc(S(=O)(=O)N3CCCC3)cc2)cc1Br
24,> 50 µM (inactive),COc1ccc(NC(=O)c2nnn(-c3cccc(C)c3)c2C)cc1
25,> 50 µM (inactive),O=C(c1ccco1)N1CCCC2(C1)Nc1cccnc1NC2=NC1CCCC1 (stereo not drawn)

row,IC50,Structure (SMILES)
1,> 50 µM (inactive),Fc1ccc(Oc2nc(CN3CCOCC3)nc3sc4c(c23)CCCC4)c(Cl)c1
2,12 µM,CC(=O)Nc1ccc(NC(=O)c2cc(-c3cc(C)cc(C)c3O)n[nH]2)cc1
3,> 50 µM (inactive),O=C(NCc1ccc2c(c1)OCO2)c1nc(-c2ccccc2)n(-c2ccccc2)n1
4,23.4 µM,Cn1nc(-c2ccccc2)c(COC(=O)c2ccc([N+](=O)[O-])cc2)c1Cl
5,27.2 µM,Cc1ccc(S(=O)(=O)N2CCC3(CC2)NC(=O)c2ccccc2N3)cc1C
6,20.2 µM,Cc1cccc(OCCn2c(CCNC(=O)C3CCCCC3)nc3ccccc32)c1
7,22.9 µM,CC(C)c1ccc(C(C(=O)NC2CCCCC2)N(C(=O)c2cnccn2)c2cccc(F)c2)cc1 (stereo not drawn)
8,14.6 µM,Cc1nc(-c2noc3ccc(C(=O)Nc4cccnc4)cc23)cs1
9,29.2 µM,COc1cccc(CNC(=O)c2ccc(CSc3nc4ccncc4n3Cc3ccccc3F)cc2)c1
10,25.8 µM,O=C(COc1ccc(Cl)cc1)NCc1nnc(SCC(=O)NCc2ccc3c(c2)OCO3)o1
11,25.6 µM,Cc1ccc(NC(=O)Cn2c(-n3nc(C)cc3C)nc3c(c2=O)CCCC3)c(C)c1
12,18.5 µM,COc1ccc(/C=C/C(=O)Nc2c3c(nc4c2CCC4)CCCC3)cc1
13,> 50 µM (inactive),CCn1c(SCc2nc(N)c3ccccc3n2)nc2ccccc21
14,> 50 µM (inactive),Cc1csc2ncc(C(=O)N3CCN(c4ccccc4F)CC3)c(=O)n12
15,25 µM,Cc1noc(-c2cccc(=O)n2CC(=O)Nc2ccc(C)c(C)c2)n1
16,23.5 µM,COc1ccc(OC)c(CCNC(=O)CCC2=NS(=O)(=O)c3ccc(C(F)(F)F)cc3N2)c1
17,> 50 µM (inactive),O=C(Cn1c(=O)n(CCC(=O)N2CC=C(c3ccccc3)CC2)c(=O)c2ccccc21)NCc1ccco1
18,37.1 µM,COc1ccc(NC(=O)CC(=O)c2ccc([N+](=O)[O-])cc2)cc1S(=O)(=O)Nc1ccc(Cl)cc1
19,> 50 µM (inactive),c1ccc2c(c1)ccc1nnc(-c3ccc4c(c3)OCO4)n12
20,> 50 µM (inactive),COc1ccc(C(=O)Nc2cc(F)c3nc(N4CCOCC4)ccc3c2)c(OC)c1
21,2.09 µM,Clc1cncc(Oc2nc(-c3cccnc3)nc3ccccc23)c1
22,> 50 µM (inactive),CC(C)=CCCC1(C)OC2=C(C(=O)c3cc(O)cc(O)c3C2=O)[C@H]2C=C(C)CC[C@H]21 (stereo partly drawn)

row,Structure (SMILES),IC50
1,CC(=O)O[C@H]1[C@]2(O)C[C@]34SS[C@](CO)(C(=O)N3[C@@H]2C[C@@]12O[C@@H](C)C(C)(C)C2=O)N(C)C4=O,2.25 µM
